This is an account of results in PMC8428694, “Structural characterization of the Plasmodium falciparum lactate transporter PfFNT alone and in complex with antimalarial compound MMV007839 reveals its inhibition mechanism” (PLoS Biology, 2021).

Series [1] has as its target T1, P. falciparum formate–nitrite transporter (PfFNT) (Plasmodium falciparum, UniProt O77389, T106A).
T1 construct: gene PF3D7_0316600; PfFNT T106A mutant, purified as wild type (full-length, N-terminal Strep-tag)
In words: ITC with purified mutant protein. Format: binding.

The target of series [2] is T2, P. falciparum formate–nitrite transporter (PfFNT) (Plasmodium falciparum, UniProt O77389).
T2 construct: gene PF3D7_0316600; full-length PfFNT, N-terminal Strep-tag; residues 7 to 293 modelled (apo structure); homopentamer
In words: ITC with purified protein; cryo-EM structure of the complex at […] Å. Format: binding.

Series [3] concerns the molecule itself. The series is described as follows: cryo-EM structure; purified PfFNT in GDN detergent (25 mM Tris pH 8.0, 150 mM NaCl, 0.06% GDN), incubated with 250 mM sodium lactate before grid preparation (no lactate density: apo form); C5 symmetry; 2.3 Å.

As a reminder, the Kd is the constant that tells how readily two partners part at equilibrium. As for `COc1ccc2c(c1)OC(O)(C(F)(F)C(F)(F)F)CC2=O` (stereo not drawn) [MMV007839], the Kd in series [1] is 80.8 nM; in series [2], about 7.18 nM.

B1: Plasmodium falciparum formate–nitrite transporter (PfFNT) (natural protein, P. falciparum, UniProt O77389 1-309, looked up)
chain: MPPNNSKYVLDPVSIKSVCGGEESYIRCVEYGKKKAHYSNLNLLAKAILAGMFVGLCAHASGIAGGLFYYHKLREIVGASMSVFVYGFTFPIAFMCIICTGSDLFTGNTLAVTMALYEKKVKLLDYLRVMTISLFGNYVGAVSFAFFVSYLSGAFTNVHAVEKNHFFQFLNDIAEKKVHHTFVECVSLAVGCNIFVCLAVYFVLTLKDGAGYVFSVFFAVYAFAIAGYEHIIANIYTLNIALMVNTKITVYQAYIKNLLPTLLGNYIAGAIVLGLPLYFIYKEHYYNFERSKRDNNDAQMKSLSIELRN
notes: PfFNT, lactate transporter of P. falciparum, UniProt O77389, encoded by pf3D7_0316600; full-length protein from codon-optimized cDNA; residues 7 to 293 of each protomer were assigned to the density map; Homopentamer in the cryo-EM structures; also called P. falciparum lactate transporter; wild-type PfFNT
The term stoichiometry N denotes the number of molecules, sites or subunits per partner or assembly. With B1, the “stoichiometry N” value in series [3] was 5.
